# Data reported in patent publication US8497371B2, “Pipemidic acid derivative autotaxin inhibitors” (University of Memphis Research Foundation, priority 2009, dated 2013).
# “Also recorded” adds a separate entry of the source. Read-outs that look alike come from different tables or passages of the source.
# Experiments:
# ATX [1] = target: T1, ATX (Homo sapiens, UniProt Q13822); set-up: conditioned serum-free medium (CCM) from MDA-MB-435 cells as the source of ATX; endogenous in cells; host or cells: MDA-MB-435 cells (about 10x concentrated serum-free conditioned medium); conditions: cited from earlier work
# ATX [2] = target: T1, ATX; assay: ATX inhibition assay with FS-3 substrate; format: biochemical; set-up: conditioned serum-free medium (CCM) from MDA-MB-435 cells as the source of ATX; endogenous in cells; host or cells: MDA-MB-435 cells (about 10x concentrated serum-free conditioned medium); conditions: for % Response at 10 μM (FS-3): FS-3 hydrolysis normalized to vehicle control (low = strong inhibition), mean ± S.D.; for single dose response comparison by aromatic substituent and position: Table 2, same values as % Response at 10 μM; for inhibition at 10 µM: single dose 10 μM, % inhibition, read-out: inhibition of ATX-mediated hydrolysis of FS-3
# Experimental: ATX inhibition was assayed using the substrate FS-3 (Echelon Biosciences, Inc., Salt Lake City, Utah, USA). The FS-3 assay used ˜10 times concentrated conditioned serum-free medium (CCM) from MDA-MB-435 cells as the source of ATX, while CCM comprised one-third of the total volume.
# All assays were performed in 96-well plates with data read at 1 minute intervals by a Synergy2 system (BioTek, Winooski, Vt.). […] Results are shown at one hour, at which point all fluorescence and absorbance changes as a function of time were linear. All readings were normalized to vehicle control after subtraction of fluorescence in the absence of CCM. Data are shown as the mean±S.D. of at least three wells. All experiments were repeated at least twice and results are shown.
# A2058 cells = assay: A2058 cell migration (scratch closure); format: cell-based; conditions: 30 μM inhibitor, 48 hours; for ATX-stimulated cell migration: ATX 100 ng/ml; for LPC+ATX-stimulated cell migration: LPC 18:1 10 μM + ATX 100 ng/ml; for LPC-stimulated cell migration: LPC 18:1 10 μM
# Experimental: A2058 cells were seeded in 96-well plates at a density of 50,000 cells per well in complete growth medium (DMEM+10% FBS+penicillin/streptomycin+L-glutamine). Cells were allowed to equilibrate for 24 hours at 37° C. with 5% CO2. Cells were then serum-deprived for 24 hours in DMEM+0.1% BSA+penicillin/streptomycin+L-glutamine (serum-free medium). […] The width of the injury was measured at T0, 4 hours (data not shown), 24 hours (data not shown), and 48 hours (shown above) after injury/treatment using the 10× objective of the phase-contrast microscope and the Micron USB software package. Data represent mean percent closure±SD. n=3 for each experiment. […] However, these reductions were also not statistically significant.
# ATX [3] = target: T1, ATX; conditions: for Inhibition Mechanism: FS-3 substrate
# human NPP6 = target: T2, human NPP6 (Homo sapiens, UniProt Q6UWR7); assay: Determination of NPP6 inhibition (pNPPC substrate); format: biochemical; conditions: 10 μM inhibitor
# T2 construct: transfected with human NPP6ex^51 or human NPP7ex expression plasmids; made in house; host or cells: HEK293 cells, transient transfection, pcDNA3.1(+); unconcentrated conditioned medium (CM)
# T2 sequence (Q6UWR7 23-419 limits assumed): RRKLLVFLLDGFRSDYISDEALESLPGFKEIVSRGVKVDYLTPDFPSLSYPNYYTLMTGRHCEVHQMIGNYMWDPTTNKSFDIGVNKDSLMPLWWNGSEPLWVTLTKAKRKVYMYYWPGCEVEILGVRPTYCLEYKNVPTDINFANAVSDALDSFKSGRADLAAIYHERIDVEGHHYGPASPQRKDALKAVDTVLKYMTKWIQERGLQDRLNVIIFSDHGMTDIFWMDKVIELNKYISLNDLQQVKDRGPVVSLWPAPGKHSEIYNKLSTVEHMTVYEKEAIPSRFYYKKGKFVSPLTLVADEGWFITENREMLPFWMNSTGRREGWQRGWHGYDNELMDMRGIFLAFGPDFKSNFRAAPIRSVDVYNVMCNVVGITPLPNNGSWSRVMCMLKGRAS
# Experimental: (§1) Inhibitor selectivity was assayed using p-nitrophenylphosphoryl-choline (pNPPC) (Sigma-Aldrich, St. Louis, Mo.) as substrate for NPP6 and NPP7. The final volume (60 μL) included 20 μL (CM, NPP6 or CCM, NPP7, 20 μL inhibitor (10 μM including 1% DMSO) in assay buffer, and 20 μL pNPPC (10 mM, NPP6 or 1 NPP7) in assay buffer. NPP6 assay buffer contained 500 mM NaCl, 0.05% Triton X-100, 100 mM Tris-HCl (pH 9.0), whereas NPP7 assay buffer was comprised of 50 mM Tris HCl, pH 8.5, 150 mM NaCl, and 10 mM taurocholic acid. However, unlike the published methods, EDTA was not added to the NPP7 assay buffer. All assays were performed in 96-well, half area plates (Corning Inc., Lowell, Mass.) at 37° C. with data collected at 2 minute intervals using a Synergy2 absorbance plate reader (BioTek, Winooski, Vt.). Results are shown at the one hour time point, when all absorbance changes as a function of time were linear. Readings were normalized to vehicle control after subtraction of absorbance in the absence of CM or CCM. Data are shown as the mean±S.D. of at least three wells. All experiments were repeated twice and representative results are shown.
# (§2) Assays were performed with CM or CCM from HEK293 cells transiently transfected with NPP6 and 7 expression plasmids, respectively. HEK293 cells were seeded in Dulbecco's modified Eagle's medium (DMEM) containing 10% fetal bovine serum, 100 U/ml penicillin, 100 μg/ml streptomycin (Hyclone, Logan, Utah), and 2 mM L-glutamine. HEK293 cells were grown overnight at 37° C. under 5% CO2 to 80% confluence. The cells were then transfected with human NPP6ex^51 or human NPP7ex expression plasmids in the pcDNA3.1(+) mammalian vector in the presence of Polyfect Transfection Reagent (Hyclone, Logan, Utah). Six hours after transfection, the culture medium was changed to serum free DMEM containing L-glutamine and cells were incubated for 48 hours. Expressed protein was collected (NPP6 and NPP7) and concentrated ˜10×(NPP7) using 10 kDa molecular weight cutoff filters (Millipore, Beverly, Mass.) in an Amicon pressure cell (Millipore, Beverly, Mass.).
# human NPP7 = target: T3, human NPP7 (Homo sapiens, UniProt Q6UWV6); assay: Determination of NPP7 inhibition (pNPPC substrate); format: biochemical; conditions: 10 μM inhibitor
# T3 construct: transfected with human NPP6ex^51 or human NPP7ex expression plasmids; made in house; host or cells: HEK293 cells, transient transfection, pcDNA3.1(+); conditioned medium concentrated about 10x (CCM)
# T3 sequence (Q6UWV6 22-433 limits assumed): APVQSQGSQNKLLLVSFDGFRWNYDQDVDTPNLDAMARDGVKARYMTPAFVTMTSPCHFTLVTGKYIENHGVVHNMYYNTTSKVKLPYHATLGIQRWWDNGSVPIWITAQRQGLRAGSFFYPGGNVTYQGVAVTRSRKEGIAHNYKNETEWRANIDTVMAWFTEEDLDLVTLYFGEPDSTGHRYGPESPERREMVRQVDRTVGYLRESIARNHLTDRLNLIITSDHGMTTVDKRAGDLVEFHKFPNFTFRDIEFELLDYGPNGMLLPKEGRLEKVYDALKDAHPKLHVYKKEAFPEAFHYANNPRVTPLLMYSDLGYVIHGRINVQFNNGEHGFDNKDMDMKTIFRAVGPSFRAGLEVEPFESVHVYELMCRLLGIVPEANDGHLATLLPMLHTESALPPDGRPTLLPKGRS
# Experimental: as §1, §2
# ATX [4] = target: T1, ATX; assay: biochemical
# ATX [5] = target: T1, ATX; set-up: conditioned serum-free medium (CCM) from MDA-MB-435 cells as the source of ATX; endogenous in cells; host or cells: MDA-MB-435 cells (about 10x concentrated serum-free conditioned medium); conditions: 10 μM compound, 1 μM FS-3; earlier screen; cited from earlier work
# [6] = Ki (nM), competitive inhibitors
# [7] = Ki (μM), FS-3 substrate, for mixed mode Ki=IC50 assumed
Structure (SMILES),% Response at 10 μM (FS-3) (ATX [2]; 10 μM compound),inhibition at 10 µM (ATX [2]),mechanism of ATX inhibition (ATX [3]),Inhibition Mechanism (ATX [3]),IC50 (ATX [2]; FS-3 substrate),potency relative to the lead compound (ATX [3]),Ki (ATX [4]; Ki),mechanism of inhibition (reported) (ATX [1]),ATX-stimulated cell migration (A2058 cells),LPC+ATX-stimulated cell migration (A2058 cells),LPC-stimulated cell migration (A2058 cells),effect on activity of NPP6 (human NPP6),effect on activity of NPP7 (human NPP7),other results
CCCCCCCCc1ccc(CCC(N)(CO)COP(=O)(O)O)cc1 (stereo not shown) [FTY720-phosphate],–,–,–,–,–,–,–,competitive,–,–,–,–,–,Ki (ATX [1]; read-out: Ki (reported)): 200 nM
N[C@@H](Cc1c[nH]cn1)C(=O)O [L-histidine],–,–,–,–,–,–,–,non-competitive,–,–,–,–,–,–
"CCn1cc(C(=O)O)c(=O)c2cnc(N3CCN(C(=S)Nc4cc(Cl)ccc4Cl)CC3)nc21 [Compound 20, 2-(4-{[(2,5-dichlorophenyl)amino]carbonothioyl}-1-piperazinyl)-8-ethyl-5-oxo-5,8-dihydropyrido[2,3-d]pyrimidine-6-carboxylic acid]",–,–,–,–,–,–,–,–,appeared to decrease,appeared to decrease,appeared to decrease,None of the compounds affected the activity,None of the compounds affected the activity,–
"CCCCCCCCCCCCC/C=C/[C@@H](O)[C@@H](N)COP(=O)(O)O [Compound S1P, sphingosine 1-phosphate]",–,–,–,–,–,–,–,mixed-mode,–,–,–,–,–,–
"CCn1cc(C(=O)O)c(=O)c2cnc(N3CCN(C(=S)Nc4cccc(C(F)(F)F)c4)CC3)nc21 [Compound 11, 2-(4-{[(3-trifluoromethylphenyl)amino]carbonothioyl}-1-piperazinyl)-8-ethyl-5-oxo-5,8-dihydropyrido[2,3-d]pyrimidine-6-carboxylic acid]",0.3 ± 0.6%,–,competitive,Competitive,900 ± 300 nM,at least as potent as the lead compound,30 nM,–,–,–,–,None of the compounds affected the activity,None of the compounds affected the activity,IC50 (ATX [2]; Substrate FS-3 (1 μM)): 900 ± 300 nM; single dose response comparison by aromatic substituent and position (ATX [2]): 0.3 ± 0.6; Ki (ATX [4]; [6]): 30 to 430 nM
"CCn1cc(C(=O)O)c(=O)c2cnc(N3CCN(C(=S)Nc4cccc(C)c4)CC3)nc21 [Compound 13, 2-(4-{[(3-methylphenyl)amino]carbonothioyl}-1-piperazinyl)-8-ethyl-5-oxo-5,8-dihydropyrido[2,3-d]pyrimidine-6-carboxylic acid]",41.9 ± 0.8%,≥ 50%,mixed-mode,Mixed,13500 ± 1300 nM,as potent as or significantly less potent than the lead,1700 to 13500 nM,–,–,–,–,None of the compounds affected the activity,None of the compounds affected the activity,Ki (ATX [4]; [7]): 13500 nM

# The next lines start with results.
% Response at 10 μM (FS-3) (ATX [2]; 10 μM compound),inhibition at 10 µM (ATX [2]),mechanism of ATX inhibition (ATX [3]),Inhibition Mechanism (ATX [3]),IC50 (ATX [2]; FS-3 substrate),potency relative to the lead compound (ATX [3]),Ki (ATX [4]; Ki),Structure (SMILES),mechanism of inhibition (reported) (ATX [1]),ATX-stimulated cell migration (A2058 cells),LPC+ATX-stimulated cell migration (A2058 cells),LPC-stimulated cell migration (A2058 cells),effect on activity of NPP6 (human NPP6),effect on activity of NPP7 (human NPP7),other results
9.7 ± 0.9%,≥ 50%,mixed-mode,Mixed,–,–,–,"CCn1cc(C(=O)O)c(=O)c2cnc(N3CCN(C(=S)Nc4cccc(Cl)c4)CC3)nc21 [Compound 14, 2-(4-{[(3-chlorophenyl)amino]carbonothioyl}-1-piperazinyl)-8-ethyl-5-oxo-5,8-dihydropyrido[2,3-d]pyrimidine-6-carboxylic acid]",–,appeared to decrease,appeared to decrease,appeared to decrease,None of the compounds affected the activity,None of the compounds affected the activity,single dose response comparison by aromatic substituent and position (ATX [2]): 9.7 ± 0.9
28.6 ± 2.0%,≥ 50%,competitive,Competitive,12100 ± 2400 nM,at least as potent as the lead compound,–,"CCn1cc(C(=O)O)c(=O)c2cnc(N3CCN(C(=S)Nc4ccc5nsnc5c4)CC3)nc21 [Compound 7, 2-(4-{[(3-benzothiadiazolphenyl)amino]carbonothioyl}-1-piperazinyl)-8-ethyl-5-oxo-5,8-dihydropyrido[2,3-d]pyrimidine-6-carboxylic acid]",–,–,–,–,None of the compounds affected the activity,None of the compounds affected the activity,IC50 (ATX [2]; Substrate FS-3 (1 μM)): 12100 nM; Ki (ATX [4]; [6]): 30 to 430 nM; Ki (ATX [4]; [7]): 430 nM
0.0 ± 4.0%,–,mixed-mode,Mixed,–,–,1600 nM,CCn1cc(C(=O)O)c(=O)c2cnc(N3CCN(C(=S)Nc4cc(Cl)cc(Cl)c4)CC3)nc21 [Compound 1],–,significantly inhibited,significantly inhibited; also recorded: statistically significant inhibition,the reduction was not statistically significant,–,–,"block of ATX-mediated hydrolysis of FS-3 (ATX [2]; 10 μM compound, FS-3 1 μM): completely blocked; IC50 (ATX [2]; ATX-mediated FS-3 hydrolysis): 1600 ± 400 nM; inhibition of ATX-catalyzed hydrolysis of FS-3, initial single concentration screen (ATX [5]): fully inhibited"
